The nature of this test: Inhibition of chemR23 expressed in human CAL1 cells assessed as reduction in chemerin-induced chemotaxis incubated for 4 hrs by cell counting based CellTiter-Glo assay.

Here are results for 1 compound from BindingDB's records for doi:10.1016/j.bmc.2019.115091 (Kyowa Kirin, 2019).

Take `CCCCN(c1nc2cc(C(=O)NC)ccc2o1)[C@H](C)c1ccc(-c2ccccc2-c2nnn[nH]2)cc1`: the IC50 was found to be 0.38 µM.
